Results published in paper PMC9354932, “Heme Interferes With Complement Factor I-Dependent Regulation by Enhancing Alternative Pathway Activation” (Frontiers in Immunology, 2022).

Target: T1, factor I (FI) (Homo sapiens, UniProt P05156)
T1 construct: gene CFI; purified human complement factor I, commercial (CompTech); mature heavy and light chains of one precursor; immobilised on CM5 chip for SPR
T1 sequence (P05156 19-335): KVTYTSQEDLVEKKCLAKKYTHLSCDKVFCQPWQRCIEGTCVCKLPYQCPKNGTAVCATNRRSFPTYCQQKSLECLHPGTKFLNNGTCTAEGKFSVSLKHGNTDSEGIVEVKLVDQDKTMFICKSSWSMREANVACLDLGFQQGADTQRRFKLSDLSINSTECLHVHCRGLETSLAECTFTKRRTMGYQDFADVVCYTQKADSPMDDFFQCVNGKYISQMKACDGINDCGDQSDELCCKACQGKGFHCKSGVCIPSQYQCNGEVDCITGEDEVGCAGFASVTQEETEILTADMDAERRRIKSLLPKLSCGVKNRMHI
T1 sequence (P05156 340-583): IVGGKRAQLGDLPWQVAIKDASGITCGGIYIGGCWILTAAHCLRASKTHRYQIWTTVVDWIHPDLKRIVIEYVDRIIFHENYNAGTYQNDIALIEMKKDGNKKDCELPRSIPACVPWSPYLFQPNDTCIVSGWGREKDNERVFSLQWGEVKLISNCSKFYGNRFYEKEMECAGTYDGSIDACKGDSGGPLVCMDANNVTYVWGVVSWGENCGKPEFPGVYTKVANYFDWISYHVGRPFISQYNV
Assay: SPR (Biacore […]), factor I immobilised on CM5 chip
Type: binding
Conditions: read-out: KD (apparent)

Kd: 11.5 µM
Structure (SMILES): C=CC1=C(C)C2=Cc3c(C=C)c(C)c4[n]3[Fe]([Cl])[n]3c(c(C)c(CCC(=O)O)c3=CC3=NC(=C4)C(C)=C3CCC(=O)O)=CC1=N2 [heme]
